This note sets out measurements from patent EP0900210B1, “ANTIVIRALLY ACTIVE HETEROCYCLIC AZAHEXANE DERIVATIVES” (Novartis AG, priority 1996, dated 1997).

pIC50: −log10 of the molar value. Where two headings read alike, the source gives them in different places.

The target of the test is T1, HIV-1-protease (Human immunodeficiency virus type 1 group M subtype B, UniProt P04585).
T1 construct: made in house
As to the kind of experiment: Inhibition of HIV-1-protease with icosapeptide substrate […] (HPLC). It counts as biochemical. The note with it: 20 mM MES pH 6.0, one hour at 37°C, read-out: IC50. As for the experimental part:
The inhibitory action of the compounds of formula I on the proteolytic activity of HIV-1-protease can be shown, for example, according to known procedures (see A. D. Richards et al., J. Biol. Chem. 265(14), 7733-7736 (1990)). In that method the inhibition of the action of HIV-1-protease (preparation: see S. Billich et al., J. Biol. Chem. 263(34), 17905-17908 (1990)) is measured in the presence of the icosapeptide […] (a synthetic substrate of HIV-1-protease, prepared by peptide synthesis in accordance with known procedures (see J. Schneider et al., Cell 54, 363-368 (1988)), which contains as substrate analogue one of the cleavage sites of the gag-precursor protein (natural substrate of HIV-1-protease). That substrate and its cleavage products are analysed by high performance liquid chromatography (HPLC).
The test compound is dissolved in dimethyl sulfoxide. The enzymatic test is carried out by adding suitable dilutions of the inhibitor in 20 mM β-morpholinoethanesulfonic acid (MES) buffer pH 6.0 to the test mixture. That mixture consists of the above-mentioned icosapeptide (122 µM) in 20 mM MES-buffer pH 6.0. 100 µl are used per test batch. The reaction is started by the addition of […] of HIV-1-protease solution and is stopped after one hour's incubation at 37°C by the addition of 10 µl of 0.3M HClO4. After centrifugation of the sample at 10 000 x g for 5 minutes, 20 µl of the resulting supernatant are applied to a 125 x 4.6 mm Nucleosil® C18-5m-HPLC column (reversed-phase material supplied by Macherey & Nagel, Düren, FRG, based on silica gel that has been charged with C18alkyl chains). The uncleaved icosapeptide and its cleavage products are eluted from the column by means of the following gradient: 100 % eluant 1 → 50 % eluant 1 + 50 % eluant 2 (eluant 1: 10 % acetonitrile, 90 % H2O, 0.1 % trifluoroacetic acid (TFA); eluant 2: 75 % acetonitrile, 25 % H2O, 0.08 % TFA) for 15 minutes, throughflow rate 1 ml/min. The quantification of the eluted peptide fragments is carried out by measuring the peak height of the cleavage product at 215 nm.
Using the test system described above with the icosapeptide […], the IC50 values given below are obtained for the following Examples: […]

The pIC50 is the IC50 on a negative log10 scale, so that one unit is a factor of ten. For “1-[4-(Pyrazin-2-yl)-phenyl]-4(S)-hydroxy-2-[N-(N-methoxycarbonyl-(L)-valyl)amino]-5(S)-[N-(N-methoxycarbonyl-(L)-tert-leucyl)amino]-6-phenyl-2-azahexane [Example 44]”, the pIC50 (icosapeptide RRSNQVSQNYPIVQNIQGRR 122 µM) was 7.54.

For the compound `COC(=O)N[C@H](C(=O)N[C@@H](Cc1ccccc1)[C@@H](O)CN(Cc1ccc(-c2nnnn2C)cc1)NC(=O)[C@@H](NC(=O)OC)C(C)(C)C)C(C)(C)C` [27 (1-methyl-1H-tetrazolyl isomer), 1-[4-(1-methyl-1H-tetrazol-5-yl)-phenyl]-4(S)-hydroxy-5(S)-2,5-bis[N-(N-methoxycarbonyl-(L)-tert-leucyl)amino]-6-phenyl-2-azahexane], under “icosapeptide […] 122 µM”, the negative logarithm of the IC50 (pIC50) is 7.29.

Consider `COC(=O)N[C@H](C(=O)N[C@@H](Cc1ccccc1)[C@@H](O)CN(Cc1ccc(-c2cncs2)cc1)NC(=O)[C@@H](NC(=O)OC)C(C)C)C(C)C` [Example 1, 1-[4-(Thiazol-5-yl)-phenyl]-4(S)-hydroxy-5(S)-2,5-bis[N-(N-methoxycarbonyl-(L)-valyl)amino]-6-phenyl-2-azahexane], for which the negative-log IC50 (pIC50) (icosapeptide […] 122 µM) is 7.49.

Turning to `COC(=O)N[C@H](C(=O)NN(Cc1ccc(-c2cncs2)cc1)C[C@H](O)[C@H](Cc1ccccc1)NC(=O)[C@@H](NC(=O)OC)C(C)(C)C)C(C)C` [Example 2, 1-[4-(Thiazol-5-yl)-phenyl]-4(S)-hydroxy-2-N-(N-methoxycarbonyl-(L)-valyl)-amino-5(S)-N-(N-methoxycarbonyl-(L)-tert-leucyl)amino-6-phenyl-2-azahexane], the negative-log IC50 (pIC50) (icosapeptide […] 122 µM) is 7.85.

Turning to `COC(=O)N[C@H](C(=O)N[C@@H](Cc1ccccc1)[C@@H](O)CN(Cc1ccc(-c2cncs2)cc1)NC(=O)[C@@H](NC(=O)OC)C(C)(C)C)C(C)(C)C` [Example 3, 1-[4-(Thiazol-5-yl)-phenyl]-4(S)-hydroxy-5(S)-2,5-bis[N-(N-methoxycarbonyl-(L)-tert-leucyl)amino]-6-phenyl-2-azahexane], for the setting “icosapeptide […] 122 µM”, the pIC50 was 7.39.

Regarding `CC[C@H](C)[C@H](NC(=O)OC)C(=O)NN(Cc1ccc(-c2cncs2)cc1)C[C@H](O)[C@H](Cc1ccccc1)NC(=O)[C@@H](NC(=O)OC)C(C)(C)C` [Example 4, 1-[4-(Thiazol-5-yl)-phenyl]-4(S)-hydroxy-2-N-(N-methoxycarbonyl-(L)-iso-leucyl)amino-5(S)-N-(N-methoxycarbonyl-(L)-tert-leucyl)amino-6-phenyl-2-azahexane], the pIC50 (icosapeptide […] 122 µM) is 7.42.

In the case of `COC(=O)N[C@@H](CSC)C(=O)NN(Cc1ccc(-c2cncs2)cc1)C[C@H](O)[C@H](Cc1ccccc1)NC(=O)[C@@H](NC(=O)OC)C(C)(C)C` [Example 5, 1-[4-(Thiazol-5-yl)-phenyl]-4(S)-hydroxy-2-N-(N-methoxycarbonyl-(L)-S-methylcysteinyl)amino-5(S)-N-(N-methoxycarbonyl-(L)-tert-leucyl)amino-6-phenyl-2-azahexane], the pIC50 (icosapeptide […] 122 µM) is 7.40.

Turning to `CCOC(=O)N[C@H](C(=O)NN(Cc1ccc(-c2cncs2)cc1)C[C@H](O)[C@H](Cc1ccccc1)NC(=O)[C@@H](NC(=O)OC)C(C)(C)C)C(C)C` [Example 6, 1-[4-(Thiazol-5-yl)-phenyl]-4(S)-hydroxy-2-N-(N-ethoxycarbonyl-(L)-valyl)-amino-5(S)-N-(N-methoxycarbonyl-(L)-tert-leucyl)amino-6-phenyl-2-azahexane], the pIC50 (icosapeptide […] 122 µM) was 7.66.

As for `COC(=O)N[C@H](C(=O)N[C@@H](Cc1ccccc1)[C@@H](O)CN(Cc1ccc(-c2cncs2)cc1)NC(=O)[C@@H](NC(=O)OC)C(C)(C)C)C(C)C` [Example 7, 1-[4-(Thiazol-5-yl)-phenyl]-4(S)-hydroxy-2-N-(N-methoxcarbonyl-(L)-tert-leucyl)amino-5(S)-N-(N-methoxycarbonyl-(L)-valyl)amino-6-phenyl-2-azahexane], for the setting “icosapeptide […] 122 µM”, the pIC50 is 7.89.

On to `CCOC(=O)N[C@H](C(=O)NN(Cc1ccc(-c2cncs2)cc1)C[C@H](O)[C@H](Cc1ccccc1)NC(=O)[C@@H](NC(=O)OC)C(C)C)C(C)C` [Example 8, 1-[4-(Thiazol-5-yl)-phenyl]-4(S)-hydroxy-2-N-(N-ethoxycarbonyl-(L)-valyl)-amino-5(S)-N-(N-methoxycarbonyl-(L)-valyl)amino-6-phenyl-2-azahexane], for which the pIC50 (icosapeptide […] 122 µM) is 8.00.

As for `CC[C@H](C)[C@H](NC(=O)OC)C(=O)NN(Cc1ccc(-c2cncs2)cc1)C[C@H](O)[C@H](Cc1ccccc1)NC(=O)[C@@H](NC(=O)OC)C(C)C` [Example 9, 1-[4-(Thiazol-5-yl)-phenyl]-4(S)-hydroxy-2-N-(N-methoxycarbonyl-(L)-isoleucyl)amino-5(S)-N-(N-methoxycarbonyl-(L)-valyl)amino-6-phenyl-2-azahexane], for the setting “icosapeptide […] 122 µM”, the pIC50 was 7.72.

Regarding `COC(=O)N[C@@H](CSC)C(=O)NN(Cc1ccc(-c2cncs2)cc1)C[C@H](O)[C@H](Cc1ccccc1)NC(=O)[C@@H](NC(=O)OC)C(C)C` [Example 10, 1-[4-(Thiazol-5-yl)-phenyl]-4(S)-hydroxy-2-N-(N-methoxycarbonyl-(L)-S-methylcysteinyl)amino-5(S)-N-(N-methoxycarbonyl-(L)-valyl)amino-6-phenyl-2-azahexane], the pIC50 (icosapeptide […] 122 µM) was 7.70.

On to `CC[C@H](C)[C@H](NC(=O)OC)C(=O)N[C@@H](Cc1ccccc1)[C@@H](O)CN(Cc1ccc(-c2cncs2)cc1)NC(=O)[C@@H](NC(=O)OC)C(C)(C)C` [Example 11, 1-[4-(Thiazol-5-yl)-phenyl]-4(S)-hydroxy-2-N-(N-methoxycarbonyl-(L)-tert-leucyl)amino-5(S)-N-(N-methoxycarbonyl-(L)-iso-leucyl)amino-6-phenyl-2-azahexane], for which, where the note is “icosapeptide […] 122 µM”, the negative-log IC50 (pIC50) is 7.43.

For the compound `CC[C@H](C)[C@H](NC(=O)OC)C(=O)N[C@@H](Cc1ccccc1)[C@@H](O)CN(Cc1ccc(-c2cncs2)cc1)NC(=O)[C@@H](NC(=O)OC)C(C)C` [Example 12, 1-[4-(Thiazol-5-yl)-phenyl]-4(S)-hydroxy-2-N-(N-methoxycarbonyl-(L)-valyl)amino-5(S)-N-(N-methoxycarbonyl-(L)-iso-leucyl)amino-6-phenyl-2-azahexane], the negative logarithm of the IC50 (pIC50) (icosapeptide […] 122 µM) is 7.70.

On to `CC[C@H](C)[C@H](NC(=O)OC)C(=O)N[C@@H](Cc1ccccc1)[C@@H](O)CN(Cc1ccc(-c2cncs2)cc1)NC(=O)[C@@H](NC(=O)OC)[C@@H](C)CC` [Example 13, 1-[4-(Thiazol-5-yl)-phenyl]-4(S)-hydroxy-5(S)-2,5-bis[N-(N-methoxycarbonyl-(L)-iso-leucyl)amino]-6-phenyl-2-azahexane], for which the pIC50 (icosapeptide […] 122 µM) is 7.49.

`CCOC(=O)N[C@H](C(=O)NN(Cc1ccc(-c2cncs2)cc1)C[C@H](O)[C@H](Cc1ccccc1)NC(=O)[C@@H](NC(=O)OC)[C@@H](C)CC)C(C)C` [Example 14, 1-[4-(Thiazol-5-yl)-phenyl]-4(S)-hydroxy-2-N-(N-ethoxycarbonyl-(L)-valyl)-amino-5(S)-N-(N-methoxycarbonyl-(L)-iso-leucyl)amino-6-phenyl-2-azahexane]: under “icosapeptide […] 122 µM”, the pIC50 is 7.51.

Turning to `CC[C@H](C)[C@H](NC(=O)OC)C(=O)N[C@@H](Cc1ccccc1)[C@@H](O)CN(Cc1ccc(-c2cncs2)cc1)NC(=O)[C@H](CSC)NC(=O)OC` [Example 15, 1-[4-(Thiazol-5-yl)-phenyl]-4(S)-hydroxy-2-N-(N-methoxycarbonyl-(L)-S-methylcysteinyl)amino-5(S)-N-(N-methoxycarbonyl-(L)-iso-leucyl)amino-6-phenyl-2-azahexane], the pIC50 (icosapeptide […] 122 µM) is 7.30.

With `COC(=O)N[C@H](C(=O)N[C@@H](Cc1ccccc1)[C@@H](O)CN(Cc1ccc(-c2nccs2)cc1)NC(=O)[C@@H](NC(=O)OC)C(C)(C)C)C(C)(C)C` [Example 16, 1-[4-(Thiazol-2-yl)-phenyl]-4(S)-hydroxy-5(S)-2,5-bis[N-(N-methoxycarbonyl-(L)-tert-leucyl)amino]-6-phenyl-2-azahexane], the negative logarithm of the IC50 (pIC50) (icosapeptide […] 122 µM) is 7.48.

For the compound `COC(=O)N[C@H](C(=O)N[C@@H](Cc1ccccc1)[C@@H](O)CN(Cc1ccc(-c2nccs2)cc1)NC(=O)[C@@H](NC(=O)OC)C(C)(C)C)C(C)C` [Example 17, 1-[4-(Thiazol-2-yl)-phenyl]-4(S)-hydroxy-2-N-(N-methoxycarbonyl-(L)-tert-leucyl)amino-5(S)-N-(N-methoxycarbonyl-(L)-valyl)amino-6-phenyl-2-azahexane], the pIC50 (icosapeptide […] 122 µM) is 7.74.

Consider `CC[C@H](C)[C@H](NC(=O)OC)C(=O)NN(Cc1ccc(-c2nccs2)cc1)C[C@H](O)[C@H](Cc1ccccc1)NC(=O)[C@@H](NC(=O)OC)C(C)C` [Example 18, 1-[4-(Thiazol-2-yl)-phenyl]-4(S)-hydroxy-2-N-(N-methoxycarbonyl-(L)-iso-leucyl)amino-5(S)-N-(N-methoxycarbonyl-(L)-valyl)amino-6-phenyl-2-azahexane], for which the negative logarithm of the IC50 (pIC50) (icosapeptide […] 122 µM) is 7.60.
